PubChem BioAssay AID1963445 (Molecular Pharmacology Branch, DTP, NCI, 2024)

Test system: MCF7 complex spheroid growth, % test/control
Test: Anticancer human tumor MCF7 cell line growth inhibition [Asc];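 further: spheroids exposed to compounds for 7 days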;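 on viability, T/C: 100% = DMSO vehicle control wells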
Settings: for IC50: curve of first compound; for viability, T/C: stronger effect = lower value
How it was run: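 Complex solid-tumor spheroids incorporating human endothelial and mesenchymal stem cells received single agents or combinations over half-log dilution ranges anchored to clinical Cmax.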

[1] = second compound 0.0316 µM, first compound 0.0316 µM
[2] = second compound 0.0316 µM, first compound 0.1 µM
[3] = second compound 0.0316 µM, first compound 0.316 µM
[4] = second compound 0.0316 µM, first compound 1 µM
[5] = second compound 0.1 µM, first compound 0.0316 µM
[6] = second compound 0.1 µM, first compound 0.1 µM
[7] = second compound 0.1 µM, first compound 0.316 µM
[8] = second compound 0.1 µM, first compound 1 µM
[9] = second compound 0.316 µM, first compound 0.0316 µM
[10] = second compound 0.316 µM, first compound 0.1 µM
[11] = second compound 0.316 µM, first compound 0.316 µM
[12] = second compound 0.316 µM, first compound 1 µM
[13] = second compound 1 µM, first compound 0.0316 µM
[14] = second compound 1 µM, first compound 0.1 µM
[15] = second compound 1 µM, first compound 0.316 µM
[16] = second compound 1 µM, first compound 1 µM

Question: How did the IC50 (second compound 0.00316 µM) turn out when COc1c(OCCCN2CCOCC2)ccc2c3n(c(=NC(=O)c4cnc(N)nc4)nc12)CCN3 + CNC(C)C(=O)NC1CN(S(=O)(=O)c2cccc(S(=O)(=O)N3CCC4CCC(C(=O)NC(c5ccccc5)c5ccccc5)N4C(=O)C(NC(=O)C(C)NC)C3)c2)CCC2CCC(C(=O)NC(c3ccccc3)c3ccccc3)N2C1=O was run?
Answer: Its IC50 is 3.2 nM.

Question: What about the IC50 (second compound 0.01 µM) of the same compound?
Answer: Its IC50 is less than 3.16 nM.

Question: And the IC50 (second compound 0.0316 µM)?
Answer: The IC50 was less than 3.16 nM.

Question: What about the IC50 (second compound 0.1 µM) of the same compound?
Answer: The IC50 was less than 3.16 nM.

Question: And the IC50 (second compound 0.316 µM)?
Answer: Its IC50 is less than 3.16 nM.

Question: What about the IC50 (second compound 1 µM) of the same compound?
Answer: The IC50 was less than 3.16 nM.

Question: And the viability, T/C (second compound 0.00316 µM, first compound 0.00316 µM)?
Answer: Its viability, T/C is 50.2%.

Question: And the viability, T/C (second compound 0.00316 µM, first compound 0.01 µM)?
Answer: Its viability, T/C is 35.3%.

Question: And the viability, T/C (second compound 0.00316 µM, first compound 0.0316 µM)?
Answer: The viability, T/C was 14.7%.

Question: And the viability, T/C (second compound 0.00316 µM, first compound 0.1 µM)?
Answer: The viability, T/C was 8.43%.

Question: What about the viability, T/C (second compound 0.00316 µM, first compound 0.316 µM) of the same compound?
Answer: The viability, T/C was 8.17%.

Question: And the viability, T/C (second compound 0.00316 µM, first compound 1 µM)?
Answer: The viability, T/C was 8.35%.

Question: What about the viability, T/C (second compound 0.01 µM, first compound 0.00316 µM) of the same compound?
Answer: Its viability, T/C is 10.9%.

Question: What about the viability, T/C (second compound 0.01 µM, first compound 0.01 µM) of the same compound?
Answer: Its viability, T/C is 9.75%.

Question: And the viability, T/C (second compound 0.01 µM, first compound 0.0316 µM)?
Answer: Its viability, T/C is 9.42%.

Question: What about the viability, T/C (second compound 0.01 µM, first compound 0.1 µM) of the same compound?
Answer: Its viability, T/C is 8.15%.

Question: What about the viability, T/C (second compound 0.01 µM, first compound 0.316 µM) of the same compound?
Answer: Its viability, T/C is 6.06%.

Question: What about the viability, T/C (second compound 0.01 µM, first compound 1 µM) of the same compound?
Answer: The viability, T/C was 8.55%.

Question: And the viability, T/C (second compound 0.0316 µM, first compound 0.00316 µM)?
Answer: The viability, T/C was 12.6%.

Question: What about the viability, T/C (second compound 0.0316 µM, first compound 0.01 µM) of the same compound?
Answer: Its viability, T/C is 10.9%.

Question: What about the viability, T/C [1] of the same compound?
Answer: The viability, T/C was 9.42%.

Question: What about the viability, T/C [2] of the same compound?
Answer: Its viability, T/C is 9.87%.

Question: What about the viability, T/C [3] of the same compound?
Answer: Its viability, T/C is 7.86%.

Question: What about the viability, T/C [4] of the same compound?
Answer: Its viability, T/C is 8.09%.

Question: What about the viability, T/C (second compound 0.1 µM, first compound 0.00316 µM) of the same compound?
Answer: The viability, T/C was 13.9%.

Question: What about the viability, T/C (second compound 0.1 µM, first compound 0.01 µM) of the same compound?
Answer: The viability, T/C was 11.1%.

Question: What about the viability, T/C [5] of the same compound?
Answer: The viability, T/C was 10.8%.

Question: What about the viability, T/C [6] of the same compound?
Answer: The viability, T/C was 12%.

Question: What about the viability, T/C [7] of the same compound?
Answer: The viability, T/C was 10.7%.

Question: And the viability, T/C [8]?
Answer: Its viability, T/C is 8.86%.

Question: What about the viability, T/C (second compound 0.316 µM, first compound 0.00316 µM) of the same compound?
Answer: The viability, T/C was 11.8%.

Question: And the viability, T/C (second compound 0.316 µM, first compound 0.01 µM)?
Answer: Its viability, T/C is 9.96%.

Question: And the viability, T/C [9]?
Answer: Its viability, T/C is 10.1%.

Question: What about the viability, T/C [10] of the same compound?
Answer: The viability, T/C was 10%.

Question: What about the viability, T/C [11] of the same compound?
Answer: The viability, T/C was 8.17%.

Question: What about the viability, T/C [12] of the same compound?
Answer: Its viability, T/C is 8.52%.

Question: And the viability, T/C (second compound 1 µM, first compound 0.00316 µM)?
Answer: Its viability, T/C is 11.3%.

Question: And the viability, T/C (second compound 1 µM, first compound 0.01 µM)?
Answer: Its viability, T/C is 9.91%.

Question: What about the viability, T/C [13] of the same compound?
Answer: The viability, T/C was 13%.

Question: And the viability, T/C [14]?
Answer: Its viability, T/C is 10.5%.

Question: And the viability, T/C [15]?
Answer: Its viability, T/C is 9.23%.

Question: And the viability, T/C [16]?
Answer: Its viability, T/C is 9.11%.

Question: Which IC50 (second compound 0.0316 µM) does the source give for C#Cc1c(F)ccc2cc(O)cc(-c3ncc4c(N5CC6CCC(C5)N6)nc(OCC56CCCN5CC(F)C6)nc4c3F)c12 (centres undefined) + Cc1c(S(C)(=O)=O)c(-c2cc(F)cc(N3CCN(c4ccc(NS(=O)(=O)c5ccc(NC(CCN6CCC(C(=O)OCCCP(=O)(O)O)CC6)CSc6ccccc6)c(S(=O)(=O)C(F)(F)F)c5)cc4)CC3)c2)c(-c2ccc(Cl)cc2)n1C(C)C here?
Answer: The IC50 was greater than 10000 nM.

Question: What about the IC50 (second compound 0.1 µM) of the same compound?
Answer: Its IC50 is greater than 10000 nM.

Question: And the IC50 (second compound 0.316 µM)?
Answer: The IC50 was greater than 10000 nM.

Question: And the IC50 (second compound 1 µM)?
Answer: The IC50 was greater than 10000 nM.

Question: And the IC50 (second compound 3.16 µM)?
Answer: The IC50 was greater than 10000 nM.

Question: And the IC50 (second compound 10 µM)?
Answer: The IC50 was greater than 10000 nM.

Question: What about the viability, T/C [1] of the same compound?
Answer: The viability, T/C was 96.2%.

Question: And the viability, T/C [2]?
Answer: Its viability, T/C is 90%.

Question: What about the viability, T/C [3] of the same compound?
Answer: Its viability, T/C is 89.6%.

Question: And the viability, T/C [4]?
Answer: Its viability, T/C is 92.3%.

Question: What about the viability, T/C (second compound 0.0316 µM, first compound 3.16 µM) of the same compound?
Answer: The viability, T/C was 98.4%.

Question: What about the viability, T/C (second compound 0.0316 µM, first compound 10 µM) of the same compound?
Answer: Its viability, T/C is 91.8%.

Question: And the viability, T/C [5]?
Answer: Its viability, T/C is 104%.

Question: What about the viability, T/C [6] of the same compound?
Answer: Its viability, T/C is 103%.

Question: What about the viability, T/C [7] of the same compound?
Answer: Its viability, T/C is 87.5%.

Question: What about the viability, T/C [8] of the same compound?
Answer: Its viability, T/C is 84.1%.

Question: What about the viability, T/C (second compound 0.1 µM, first compound 3.16 µM) of the same compound?
Answer: Its viability, T/C is 83.4%.

Question: What about the viability, T/C (second compound 0.1 µM, first compound 10 µM) of the same compound?
Answer: The viability, T/C was 82.5%.

Question: What about the viability, T/C [9] of the same compound?
Answer: Its viability, T/C is 91%.

Question: And the viability, T/C [10]?
Answer: The viability, T/C was 83%.

Question: And the viability, T/C [11]?
Answer: The viability, T/C was 73.7%.

Question: What about the viability, T/C [12] of the same compound?
Answer: The viability, T/C was 86.7%.

Question: And the viability, T/C (second compound 0.316 µM, first compound 3.16 µM)?
Answer: The viability, T/C was 88.6%.

Question: And the viability, T/C (second compound 0.316 µM, first compound 10 µM)?
Answer: Its viability, T/C is 86.5%.

Question: What about the viability, T/C [13] of the same compound?
Answer: Its viability, T/C is 86%.

Question: And the viability, T/C [14]?
Answer: Its viability, T/C is 95.9%.

Question: And the viability, T/C [15]?
Answer: Its viability, T/C is 81.9%.

Question: What about the viability, T/C [16] of the same compound?
Answer: The viability, T/C was 82.6%.

Question: What about the viability, T/C (second compound 1 µM, first compound 3.16 µM) of the same compound?
Answer: Its viability, T/C is 79%.

Question: What about the viability, T/C (second compound 1 µM, first compound 10 µM) of the same compound?
Answer: The viability, T/C was 85.7%.

Question: And the viability, T/C (second compound 3.16 µM, first compound 0.0316 µM)?
Answer: Its viability, T/C is 80.3%.

Question: What about the viability, T/C (second compound 3.16 µM, first compound 0.1 µM) of the same compound?
Answer: Its viability, T/C is 77.7%.

Question: What about the viability, T/C (second compound 3.16 µM, first compound 0.316 µM) of the same compound?
Answer: The viability, T/C was 88.7%.

Question: And the viability, T/C (second compound 3.16 µM, first compound 1 µM)?
Answer: Its viability, T/C is 72.5%.

Question: And the viability, T/C (second compound 3.16 µM, first compound 3.16 µM)?
Answer: The viability, T/C was 74.1%.

Question: What about the viability, T/C (second compound 3.16 µM, first compound 10 µM) of the same compound?
Answer: The viability, T/C was 80.5%.

Question: And the viability, T/C (second compound 10 µM, first compound 0.0316 µM)?
Answer: The viability, T/C was 272%.

Question: And the viability, T/C (second compound 10 µM, first compound 0.1 µM)?
Answer: Its viability, T/C is 226%.

Question: What about the viability, T/C (second compound 10 µM, first compound 0.316 µM) of the same compound?
Answer: The viability, T/C was 251%.

Question: And the viability, T/C (second compound 10 µM, first compound 1 µM)?
Answer: The viability, T/C was 292%.

Question: What about the viability, T/C (second compound 10 µM, first compound 3.16 µM) of the same compound?
Answer: The viability, T/C was 249%.

Question: What about the viability, T/C (second compound 10 µM, first compound 10 µM) of the same compound?
Answer: Its viability, T/C is 196%.
